Patent US9987276B2 (Celgene CAR LLC, priority 2008, dated 2018)
Read-outs that look alike come from different tables or passages of the source.

Molecular target: EGFR-WT (Homo sapiens (Human), UniProt P00533)
Experiment: Omnia assay for potency assessment against EGFR (WT)
[1] = read-out: EGFR (wild type inhibition), EGFR wild type

Chain of EGFR-WT (P00533 668-1210): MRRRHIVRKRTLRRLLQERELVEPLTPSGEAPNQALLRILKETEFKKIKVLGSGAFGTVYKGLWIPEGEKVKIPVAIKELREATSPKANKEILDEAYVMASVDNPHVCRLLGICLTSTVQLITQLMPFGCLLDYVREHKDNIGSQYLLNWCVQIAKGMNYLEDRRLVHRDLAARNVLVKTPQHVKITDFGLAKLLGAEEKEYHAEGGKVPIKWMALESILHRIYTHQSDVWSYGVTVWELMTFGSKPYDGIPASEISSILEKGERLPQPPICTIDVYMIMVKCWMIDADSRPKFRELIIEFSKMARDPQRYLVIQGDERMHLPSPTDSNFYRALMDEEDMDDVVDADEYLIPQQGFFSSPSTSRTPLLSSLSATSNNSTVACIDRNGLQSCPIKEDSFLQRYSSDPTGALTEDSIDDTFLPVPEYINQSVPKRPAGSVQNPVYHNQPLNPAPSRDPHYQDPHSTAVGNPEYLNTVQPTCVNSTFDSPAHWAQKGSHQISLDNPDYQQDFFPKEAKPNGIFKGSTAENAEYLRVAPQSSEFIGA

Compound | IC50 [1] [µM] | IC50 [µM]
COCCOc1ccc(Nc2ncc(F)c(Nc3cccc(C(=O)C=C(C)C)c3)n2)cc1F [Compound I-323, 1-(3-(5-fluoro-2-(3-fluoro-4-(2-methoxyethoxy)phenylamino)pyrimidin-4-ylamino)phenyl)-3-methylbut-2-en-1-one] | > 10 | 
C=CC(=O)Nc1cccc(N(C)c2nc(Nc3ccc4c(c3)N(C)CCO4)ncc2F)c1 [Compound I-127] |  | 0.1 to 1
C=CC(=O)NCc1cccc(Nc2nc(Nc3cccc(OC)c3)ncc2C(F)(F)F)c1 [Compound I-226, N-(3-(5-trifluoromethyl-2-(3-methoxyphenylamino)pyrimidin-4-ylamino)phenyl)methylacrylamide] | 1 to 10 | 
COc1cccc(Nc2ncc(C(F)(F)F)c(Nc3cccc(C(=O)C=C(C)C)c3)n2)c1 [Compound I-225, 1-(3-(5-trifluoromethyl-2-(3-methoxyphenylamino)pyrimidin-4-ylamino)phenyl)-3-methyl-but-2-en-1-one] | 1 to 10 | 
C=CC(=O)N1CCOc2ccc(Nc3nc(Nc4ccc(N5CCCC5=O)cc4)ncc3C(C)=O)cc21 [Compound I-152, 1-{4-[5-Acetyl-4-(4-acryloyl-3,4-dihydro-2H-benzo[1,4]oxazin-6-ylamino)-pyrimidin-2-ylamino]-phenyl}-pyrrolidin-2-one] |  | 0.01 to 0.1
COCCOc1ccc(Nc2ncc(F)c(Nc3cccc(CC(=O)C=C(C)C)c3)n2)cc1F [Compound I-330, 1-(3-(5-fluoro-2-(3-fluoro-4-(2-methoxyethoxy)phenylamino)pyrimidin-4-ylamino)phenyl)-4-methylpent-3-en-2-one] | > 10 | 
C=CC(=O)NCc1ccc(Nc2nc(Nc3cccc(OC)c3)ncc2C(F)(F)F)cc1 [Compound I-235, N-(4-(5-trifluoromethyl-2-(3-methoxyphenylamino)pyrimidin-4-ylamino)phenyl)methylacrylamide] | > 10 | 
COCCOc1ccc(Nc2ncc(F)c(Nc3ccc(C(=O)C=C(C)C)cc3)n2)cc1F [Compound I-325, 1-(4-(5-fluoro-2-(3-fluoro-4-(2-methoxyethoxy)phenylamino)pyrimidin-4-ylamino)phenyl)-3-methylbut-2-en-1-one] | 1 to 10 | 
Cc1cccc(Nc2nc(Nc3cccc(NC(=O)/C=C/CN4CCOCC4)c3)ncc2F)c1 [Compound I-102, (E)-N-(3-(5-fluoro-4-(m-tolylamino)pyrimidin-2-ylamino)phenyl)-4-morpholinobut-2-enamide] |  | 0.1 to 1

Second part, the compound after the results:

IC50 [1] [µM] | IC50 [µM] | Compound
 | 0.01 to 0.1 | C=CC(=O)Nc1cccc(Nc2nc(Nc3ccc(OCCOC)cc3)ncc2C2CC2)c1 [Compound I-139, N-(3-(5-cyclopropyl-2-(4-(2-methoxyethoxy)phenylamino)pyrimidin-4-ylamino)phenyl)acrylamide]
 | 0.1 to 1 | C=C(Cn1cccn1)C(=O)Nc1cccc(Nc2ncc(F)c(Nc3cccc(C)c3)n2)c1 [Compound I-98, 2-((1H-pyrazol-1-yl)methyl)-N-(3-(5-fluoro-4-(m-tolylamino)pyrimidin-2-ylamino)phenyl)acrylamide]
1 to 10 |  | Cc1cccc(Nc2nc(Nc3cccc(NC(=O)/C=C/Cn4cccn4)c3)ncc2F)c1 [Compound I-100, (E)-N-(3-(5-fluoro-4-(m-tolylamino)pyrimidin-2-ylamino)phenyl)-4-(1H-pyrazol-1-yl)but-2-enamide]
 | 0.1 to 1 | C=CC(=O)Nc1cccc(Nc2nc(Nc3ccccc3)ncc2C(=O)Nc2ccccc2)c1 [Compound I-222, 4-(3-acrylamidophenylamino)-N-phenyl-2-(phenylamino)pyrimidine-5-carboxamide]
 | 0.01 to 0.1 | C=CC(=O)Nc1cccc(Nc2nc(Nc3cccc(N4CCN(CCO)CC4)c3)ncc2F)c1 [Compound I-83, N-(3-(2-(3-(4-(2-hydroxyethyl)piperazin-1-yl)phenylamino)-5-fluoropyrimidin-4-ylamino)phenyl)acrylamide]
1 to 10 |  | C=CC(=O)Nc1cccc(Nc2nc(Nc3ccc(OC)nc3)ncc2C(=O)NC(C)(C)C)c1 [Compound I-216, 4-(3-acrylamidophenylamino)-N-tert-butyl-2-(6-methoxypyridin-3-ylamino)pyrimidine-5-carboxamide]
